According to PMC10787067, “EBF2 Links KMT2D‐Mediated H3K4me1 to Suppress Pancreatic Cancer Progression via Upregulating KLLN” (Advanced Science, 2023):

Columns and labels:
KLLN = assay: Western blot and IHC of metastatic foci from treated mice, KLLN; assay type: in vivo, Human (xenograft in BALB/c nude mice); settings: control vs GSK-LSD1-treated lung metastasis tissues, Figure 5L,M
H3K4me1 [1] = assay: Western blot and IHC of metastatic foci from treated mice, H3K4me1; assay type: in vivo, Human (xenograft in BALB/c nude mice); settings: control vs GSK-LSD1-treated lung metastasis tissues, Figure 5L,M
H3K4me1 [2] = assay: Western blot of H3K4me1 in SW1990 cells; assay type: cell-based, Human
PANC‐1 cells [3] = assay: Transwell migration and invasion, PANC-1; assay type: cell-based, Human; settings: 24 h, vs Vehicle, p < 0.01, Figure S4G
Procedure: (§1) Cell proliferation was determined by Cell Counting Kit‐8 (CCK‐8, Yeasen) and EdU Cell Proliferation Assay kit (Ribobio, Guangzhou, China). Colony formation was observed by staining with 0.1% crystal violet (Sangon Biotechnologies Inc., Shanghai, China). Cell migration and invasion were assessed using […] pore Transwell chambers with (for invasion assay) or without Matrigel (for migration assay). For migration assay, 5 × 10^4 SW1990 or 3 × 10^4 PANC‐1 cells were seeded into the upper chamber of the Transwell apparatus (Corning, USA) in serum‐free medium, and the medium supplemented with 10% FBS was added to the bottom chamber. For invasion assay, 10 × 10^4 SW1990 or 6 × 10^4 PANC‐1 cells were seeded into the upper Corning BioCoat Matrigel invasion chamber. After 24 h, the cells on the upper surface that had not passed through the polycarbonate filter were removed using a moistened cotton swab; the cells having migrated to the lower membrane surface were fixed in 100% methanol for 10 min, stained with 0.4% crystal violet for 15 min, and counted under a microscope (Nikon, Japan) at ×100 magnification. The cells were manually counted using Image J software. Three independent experiments were performed.

SW1990 cells [4] = assay: KLLN rescue experiments (CCK-8, colony-formation, Transwell), SW1990; assay type: cell-based, Human; settings: p < 0.01, Figure 5Q-S
Procedure: as §1

SW1990‐luc xenografts = assay: SW1990-luc xenografts in BALB/c nude mice; assay type: in vivo, Human (xenograft in BALB/c nude mice); settings: n = 5, p < 0.01, two-way ANOVA, dose not given, Figure 5I-K
Procedure: BALB/c nude mice (4 weeks old) were purchased from the Animal Core Facility of Nanjing Medical University. Every 1 × 10^6 SW1990‐luc cells (SW1990 cells labeled with luciferase) were suspended in 100 µL of PBS and Matrigel (Corning) mixture, then subcutaneously injected into the right forelimb of nude mice. The length and width of tumor were measured every 2 or 3 days. Tumor volume was calculated using the formula: Volume = 0.5 × length × width^2. Luciferase signals in nude mice were measured at the first and fourth week after injection. The mice were sacrificed at 30 days for in vivo proliferation assay. Mice were anesthetized with isoflurane gas and sacrificed by cervical dislocation. Tumor tissues of these mice were collected for further analyses. Luciferase signals from D‐luciferin (Cat No. MB1834; MeilunBio, Dalian, China) were measured using IVIS Spectrum (PerkinElmer, USA) at indicated concentrations. The luciferase signal activity was quantitated using the software provided by the manufacturer.

H3K4me1 [5] = assay: IHC of H3K4me1 in PDX tumors; assay type: in vivo, Human (xenograft in immunodeficient nude mice); settings: vs control, Figure 5O
Procedure: PDAC and tumor adjacent tissues were obtained from the Second Affiliated Hospital of Nanjing Medical University. Ninety pairs of ductal adenocarcinoma and adjacent normal pancreatic tissue sections (HPanA180Su03) were obtained from Shanghai Outdo Biotech (National Human Genetic Resources Sharing Service Platform with code No. XT20‐021, Shanghai, China), under the approval by the Ethics Committee of Shanghai Outdo Biotech. IHC staining was performed on paraffin‐embedded sections of biopsies from ductal adenocarcinoma patients and controls according to standard protocols (CST). […] All pancreatic cancer tissue sections were examined by two experienced pathologists, and the EBF2, KMT2D or KLLN stained in the tissue was scored independently using the H‐score system by two pathologists blinded to the clinical data. […] For the Pearson correlation scatter plot of molecules in ductal adenocarcinoma, the H score was calculated by adding the multiplication product of the different staining intensities in category A (0–3) with the percentage of positive cells, i.e., H score (0–300 scale) = 3 × (% at 3+) + 2 × (% at 2+) + 1 × (% at 1+). […] The between‐group difference in the overall survival was evaluated by the log‐rank test. The correlation between EBF2, KMT2D, and KLLN expression in ductal adenocarcinoma was assessed via Pearson correlation analysis. […]

SW1990 cells [6] = assay: Colony-formation and CCK-8 proliferation, SW1990; assay type: cell-based, Human; settings: vs Vehicle, p < 0.01, Figure 5F,G
Procedure: as §1

SW1990 cells [7] = assay: Transwell migration and invasion, SW1990; assay type: cell-based, Human; settings: 24 h, vs Vehicle, p < 0.01, Figure 5H
Procedure: as §1

PANC‐1 cells [8] = assay: KLLN rescue experiments (CCK-8, colony-formation, Transwell), PANC-1; assay type: cell-based, Human; settings: p < 0.01, Figure S4H-J
Procedure: as §1

With `c1ccc([C@@H]2C[C@H]2NC2CCNCC2)cc1` [GSK‐LSD1] the “KLLN in metastatic foci” value (KLLN) was “upregulation”, the “H3K4me1 in metastatic foci” value (H3K4me1 [1]) was “upregulation” and the “H3K4me1 level, concentration dependence” value (H3K4me1 [2]; 0, 1, 10, or 100 µM GSK-LSD1, Figure 5E) was “increased the levels of H3K4me1 and KLLN in a concentration‐dependent manner”. For the same compound, the “H3K4me1 level in Co-IP experiment” value (H3K4me1 [2]; vs vehicle, concentration not given, Figure 5P) was “increased H3K4me1 level”, the invasion (PANC‐1 cells [3]; Transwell with Matrigel) was “significantly inhibited” and the migration (PANC‐1 cells [3]; Transwell without Matrigel) was “significantly inhibited”. The “tumor-suppressive phenotype of GSK-LSD1 on knockdown of KLLN” value (SW1990 cells [4]) was “markedly attenuated”, the “xenograft size compared to control mice” value (SW1990‐luc xenografts) was “significantly smaller sizes of SW1990‐luc xenografts” and the “H3K4me1 expression in PDX tumors” value (H3K4me1 [5]) was “significantly upregulated”. The proliferation (SW1990 cells [6]) was “significantly inhibited”, the invasion (SW1990 cells [7]; Transwell with Matrigel) was “significantly inhibited” and the migration (SW1990 cells [7]; Transwell without Matrigel) was “significantly inhibited”. The “tumor-suppressive phenotype of GSK-LSD1 on knockdown of KLLN” value (PANC‐1 cells [8]) was “markedly attenuated”.
